From PubChem BioAssay (NCI)
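The compound was tested at five concentrations on cells cultured in 96-well plates, with a 48-hour exposure period. TGI marks complete inhibition of growth.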

What was measured:
Experiment in all cases: inhibition of tumour cell growth, NCI panel, 48 h
SN12C renal = test system: SN12C renal
BT-549 breast = test system: BT-549 breast
OVCAR-5 ovarian = test system: OVCAR-5 ovarian
SW-620 colon = test system: SW-620 colon
SR leukemia = test system: SR leukemia
EKVX NSCLC = test system: EKVX NSCLC
M14 melanoma = test system: M14 melanoma
HL-60(TB) leukemia = test system: HL-60(TB) leukemia
MCF7 breast = test system: MCF7 breast
HCT-116 colon = test system: HCT-116 colon
LOX IMVI melanoma = test system: LOX IMVI melanoma
UACC-257 melanoma = test system: UACC-257 melanoma
HCT-15 colon = test system: HCT-15 colon
NCI-H522 lung = test system: NCI-H522 lung
786-0 renal = test system: 786-0 renal
U251 CNS = test system: U251 CNS
SF-268 CNS = test system: SF-268 CNS
OVCAR-4 ovarian = test system: OVCAR-4 ovarian
NCI-H23 lung = test system: NCI-H23 lung
SK-OV-3 ovarian = test system: SK-OV-3 ovarian
HCC-2998 colon = test system: HCC-2998 colon
DU-145 prostate = test system: DU-145 prostate
OVCAR-3 ovarian = test system: OVCAR-3 ovarian
TK-10 renal = test system: TK-10 renal
SNB-75 CNS = test system: SNB-75 CNS
HOP-62 NSCLC = test system: HOP-62 NSCLC
MDA-N = test system: MDA-N
NCI-H460 lung = test system: NCI-H460 lung
SK-MEL-5 melanoma = test system: SK-MEL-5 melanoma
SNB-19 CNS = test system: SNB-19 CNS
UO-31 renal = test system: UO-31 renal
K-562 leukemia = test system: K-562 leukemia
MOLT-4 leukemia = test system: MOLT-4 leukemia
IGROV1 ovarian = test system: IGROV1 ovarian
T-47D breast = test system: T-47D breast
SF-295 CNS = test system: SF-295 CNS
OVCAR-8 ovarian = test system: OVCAR-8 ovarian
PC-3 prostate = test system: PC-3 prostate
KM12 colon = test system: KM12 colon
UACC-62 melanoma = test system: UACC-62 melanoma
SF-539 CNS = test system: SF-539 CNS
MDA-MB-231 breast = test system: MDA-MB-231 breast
SK-MEL-28 melanoma = test system: SK-MEL-28 melanoma
A549 NSCLC = test system: A549 NSCLC
CCRF-CEM leukemia = test system: CCRF-CEM leukemia
MDA-MB-435 = test system: MDA-MB-435
HT29 colon = test system: HT29 colon
COLO 205 colon = test system: COLO 205 colon
A498 renal = test system: A498 renal
HOP-92 NSCLC = test system: HOP-92 NSCLC
SK-MEL-2 melanoma = test system: SK-MEL-2 melanoma
MALME-3M melanoma = test system: MALME-3M melanoma
RPMI-8226 leukemia = test system: RPMI-8226 leukemia
CAKI-1 renal = test system: CAKI-1 renal
NCI-H226 lung = test system: NCI-H226 lung
ACHN renal = test system: ACHN renal
HS 578T breast = test system: HS 578T breast
NCI/ADR-RES ovarian = test system: NCI/ADR-RES ovarian
RXF 393 renal = test system: RXF 393 renal

Measured: TGI

SC[C@@H]1COC[C@H](CS)S1
not listed: A498 renal | HOP-92 NSCLC | SK-MEL-2 melanoma | MALME-3M melanoma | RPMI-8226 leukemia | CAKI-1 renal | NCI-H226 lung | ACHN renal | HS 578T breast | NCI/ADR-RES ovarian | RXF 393 renal
> 100 µM: all other assays above

NC(=O)Cc1ncn(-c2ccccc2)n1
not listed: U251 CNS | OVCAR-4 ovarian | HCC-2998 colon | NCI-H460 lung | PC-3 prostate | SK-MEL-28 melanoma
> 100 µM: all other assays above
